# Values joined by “and” are separate entries in the source; they are usually repeats but may differ in a detail not shown here. Equal entries are not always repeated. Numbers after ± are expanded uncertainties.
# Assay: molar heat capacity at constant pressure
# Conditions: 101.33 kPa
structure (smiles),measurement,setting,value
O=C([O][Sb]([c]1ccccc1)([c]1ccccc1)([c]1ccccc1)[c]1ccccc1)c1ccccc1 [tetraphenylantimony benzoate],molar heat capacity at constant pressure,"175 K, Crystal, Small (less than 1 g) adiabatic calorimetry",350 ± 1.8 J/K/mol
same,molar heat capacity at constant pressure,"179.52 K, Crystal, Small (less than 1 g) adiabatic calorimetry",354.2 ± 1.8 J/K/mol
same,molar heat capacity at constant pressure,"180 K, Crystal, Small (less than 1 g) adiabatic calorimetry",355.4 ± 1.8 J/K/mol
same,molar heat capacity at constant pressure,"182.77 K, Crystal, Small (less than 1 g) adiabatic calorimetry",359.3 ± 1.8 J/K/mol
same,molar heat capacity at constant pressure,"187 K, Crystal, Small (less than 1 g) adiabatic calorimetry",368 ± 1.9 J/K/mol
same,molar heat capacity at constant pressure,"190 K, Crystal, Small (less than 1 g) adiabatic calorimetry",372 ± 1.9 J/K/mol
same,molar heat capacity at constant pressure,"193.46 K, Crystal, Small (less than 1 g) adiabatic calorimetry",377.4 ± 1.9 J/K/mol
same,molar heat capacity at constant pressure,"196.73 K, Crystal, Small (less than 1 g) adiabatic calorimetry",382.6 ± 2 J/K/mol
same,molar heat capacity at constant pressure,"200 K, Crystal, Small (less than 1 g) adiabatic calorimetry",387 ± 2 J/K/mol and 387.6 ± 2 J/K/mol
same,molar heat capacity at constant pressure,"203.22 K, Crystal, Small (less than 1 g) adiabatic calorimetry",393.1 ± 2 J/K/mol
same,molar heat capacity at constant pressure,"206.89 K, Crystal, Small (less than 1 g) adiabatic calorimetry",398.7 ± 2.1 J/K/mol
same,molar heat capacity at constant pressure,"210 K, Crystal, Small (less than 1 g) adiabatic calorimetry",402 ± 2.1 J/K/mol
same,molar heat capacity at constant pressure,"212.74 K, Crystal, Small (less than 1 g) adiabatic calorimetry",408.9 ± 2.1 J/K/mol
same,molar heat capacity at constant pressure,"216.41 K, Crystal, Small (less than 1 g) adiabatic calorimetry",416 ± 2.2 J/K/mol
same,molar heat capacity at constant pressure,"218 K, Crystal, Small (less than 1 g) adiabatic calorimetry",417 ± 2.2 J/K/mol
same,molar heat capacity at constant pressure,"220 K, Crystal, Small (less than 1 g) adiabatic calorimetry",420.9 ± 2.2 J/K/mol
same,molar heat capacity at constant pressure,"221.7 K, Crystal, Small (less than 1 g) adiabatic calorimetry",424.2 ± 2.2 J/K/mol
same,molar heat capacity at constant pressure,"226.59 K, Crystal, Small (less than 1 g) adiabatic calorimetry",431.9 ± 2.2 J/K/mol
same,molar heat capacity at constant pressure,"230.26 K, Crystal, Small (less than 1 g) adiabatic calorimetry",438 ± 2.2 J/K/mol
same,molar heat capacity at constant pressure,"233.93 K, Crystal, Small (less than 1 g) adiabatic calorimetry",444.7 ± 2.2 J/K/mol
same,molar heat capacity at constant pressure,"237.6 K, Crystal, Small (less than 1 g) adiabatic calorimetry",451.8 ± 2.3 J/K/mol
same,molar heat capacity at constant pressure,"240 K, Crystal, Small (less than 1 g) adiabatic calorimetry",455.1 ± 2.3 J/K/mol
same,molar heat capacity at constant pressure,"241.26 K, Crystal, Small (less than 1 g) adiabatic calorimetry",457.5 ± 2.3 J/K/mol
same,molar heat capacity at constant pressure,"244.92 K, Crystal, Small (less than 1 g) adiabatic calorimetry",464.4 ± 2.3 J/K/mol
same,molar heat capacity at constant pressure,"248.56 K, Crystal, Small (less than 1 g) adiabatic calorimetry",469.4 ± 2.4 J/K/mol
same,molar heat capacity at constant pressure,"252.2 K, Crystal, Small (less than 1 g) adiabatic calorimetry",476.9 ± 2.4 J/K/mol
same,molar heat capacity at constant pressure,"255.84 K, Crystal, Small (less than 1 g) adiabatic calorimetry",483.2 ± 2.4 J/K/mol
same,molar heat capacity at constant pressure,"259.46 K, Crystal, Small (less than 1 g) adiabatic calorimetry",489.4 ± 2.5 J/K/mol
same,molar heat capacity at constant pressure,"260 K, Crystal, Small (less than 1 g) adiabatic calorimetry",491.6 ± 2.5 J/K/mol
same,molar heat capacity at constant pressure,"260.21 K, Crystal, Small (less than 1 g) adiabatic calorimetry",492.1 ± 2.5 J/K/mol
same,molar heat capacity at constant pressure,"263.38 K, Crystal, Small (less than 1 g) adiabatic calorimetry",496.3 ± 2.5 J/K/mol
same,molar heat capacity at constant pressure,"266.99 K, Crystal, Small (less than 1 g) adiabatic calorimetry",503.4 ± 2.6 J/K/mol
same,molar heat capacity at constant pressure,"270.59 K, Crystal, Small (less than 1 g) adiabatic calorimetry",511.1 ± 2.6 J/K/mol
same,molar heat capacity at constant pressure,"273.15 K, Crystal, Small (less than 1 g) adiabatic calorimetry",514.4 ± 2.6 J/K/mol
same,molar heat capacity at constant pressure,"274.19 K, Crystal, Small (less than 1 g) adiabatic calorimetry",516.9 ± 2.6 J/K/mol
same,molar heat capacity at constant pressure,"277.77 K, Crystal, Small (less than 1 g) adiabatic calorimetry",523.1 ± 2.7 J/K/mol
same,molar heat capacity at constant pressure,"280 K, Crystal, Small (less than 1 g) adiabatic calorimetry",527.1 ± 2.7 J/K/mol
same,molar heat capacity at constant pressure,"281.34 K, Crystal, Small (less than 1 g) adiabatic calorimetry",529.8 ± 2.7 J/K/mol
same,molar heat capacity at constant pressure,"284.91 K, Crystal, Small (less than 1 g) adiabatic calorimetry",536.8 ± 2.7 J/K/mol
same,molar heat capacity at constant pressure,"288.45 K, Crystal, Small (less than 1 g) adiabatic calorimetry",544.3 ± 2.7 J/K/mol
same,molar heat capacity at constant pressure,"291.98 K, Crystal, Small (less than 1 g) adiabatic calorimetry",551.8 ± 2.8 J/K/mol
same,molar heat capacity at constant pressure,"295.51 K, Crystal, Small (less than 1 g) adiabatic calorimetry",558.6 ± 2.8 J/K/mol
same,molar heat capacity at constant pressure,"298.15 K, Crystal, Small (less than 1 g) adiabatic calorimetry",564.4 ± 2.8 J/K/mol
same,molar heat capacity at constant pressure,"299.02 K, Crystal, Small (less than 1 g) adiabatic calorimetry",565.4 ± 2.8 J/K/mol
same,molar heat capacity at constant pressure,"300 K, Crystal, Small (less than 1 g) adiabatic calorimetry",568.4 ± 2.9 J/K/mol
same,molar heat capacity at constant pressure,"302.51 K, Crystal, Small (less than 1 g) adiabatic calorimetry",572.4 ± 2.9 J/K/mol
same,molar heat capacity at constant pressure,"305.98 K, Crystal, Small (less than 1 g) adiabatic calorimetry",579.5 ± 2.9 J/K/mol
same,molar heat capacity at constant pressure,"309.1 K, Crystal, Small (less than 1 g) adiabatic calorimetry",585.3 ± 3 J/K/mol
same,molar heat capacity at constant pressure,"312.86 K, Crystal, Small (less than 1 g) adiabatic calorimetry",594.4 ± 3 J/K/mol
same,molar heat capacity at constant pressure,"316.25 K, Crystal, Small (less than 1 g) adiabatic calorimetry",601.1 ± 3 J/K/mol
same,molar heat capacity at constant pressure,"319.65 K, Crystal, Small (less than 1 g) adiabatic calorimetry",610.9 ± 3.1 J/K/mol
same,molar heat capacity at constant pressure,"320 K, Crystal, Small (less than 1 g) adiabatic calorimetry",611.4 ± 3.1 J/K/mol
same,molar heat capacity at constant pressure,"321.5 K, Crystal, DSC",615 ± 33 J/K/mol
same,molar heat capacity at constant pressure,"323.03 K, Crystal, Small (less than 1 g) adiabatic calorimetry",617.6 ± 3.1 J/K/mol
same,molar heat capacity at constant pressure,"324.5 K, Crystal, DSC",621 ± 33 J/K/mol
same,molar heat capacity at constant pressure,"326.38 K, Crystal, Small (less than 1 g) adiabatic calorimetry",625.6 ± 3.2 J/K/mol
same,molar heat capacity at constant pressure,"327.5 K, Crystal, DSC",627 ± 33 J/K/mol
same,molar heat capacity at constant pressure,"329.73 K, Crystal, Small (less than 1 g) adiabatic calorimetry",632 ± 3.2 J/K/mol
same,molar heat capacity at constant pressure,"330.5 K, Crystal, DSC",634 ± 34 J/K/mol
same,molar heat capacity at constant pressure,"333.07 K, Crystal, Small (less than 1 g) adiabatic calorimetry",638.8 ± 3.2 J/K/mol
same,molar heat capacity at constant pressure,"333.5 K, Crystal, DSC",639 ± 34 J/K/mol
same,molar heat capacity at constant pressure,"336.5 K, Crystal, DSC",645 ± 34 J/K/mol
same,molar heat capacity at constant pressure,"337.11 K, Crystal, Small (less than 1 g) adiabatic calorimetry",646.4 ± 3.2 J/K/mol
same,molar heat capacity at constant pressure,"339.5 K, Crystal, DSC",649 ± 35 J/K/mol
same,molar heat capacity at constant pressure,"340 K, Crystal, Small (less than 1 g) adiabatic calorimetry",650 ± 26 J/K/mol
same,molar heat capacity at constant pressure,"342.5 K, Crystal, DSC",656 ± 35 J/K/mol
same,molar heat capacity at constant pressure,"345.5 K, Crystal, DSC",660 ± 35 J/K/mol
same,molar heat capacity at constant pressure,"348.5 K, Crystal, DSC",666 ± 36 J/K/mol
same,molar heat capacity at constant pressure,"351.5 K, Crystal, DSC",671 ± 36 J/K/mol
same,molar heat capacity at constant pressure,"354.5 K, Crystal, DSC",678 ± 37 J/K/mol
same,molar heat capacity at constant pressure,"357.5 K, Crystal, DSC",683 ± 37 J/K/mol
same,molar heat capacity at constant pressure,"360 K, Crystal, Small (less than 1 g) adiabatic calorimetry",688 ± 27 J/K/mol
same,molar heat capacity at constant pressure,"360.5 K, Crystal, DSC",689 ± 37 J/K/mol
same,molar heat capacity at constant pressure,"368.5 K, Crystal, DSC",709 ± 38 J/K/mol
same,molar heat capacity at constant pressure,"377.2 K, Crystal, DSC",731 ± 39 J/K/mol
same,molar heat capacity at constant pressure,"380 K, Crystal, Small (less than 1 g) adiabatic calorimetry",736 ± 30 J/K/mol
same,molar heat capacity at constant pressure,"387.3 K, Crystal, DSC",755 ± 41 J/K/mol
same,molar heat capacity at constant pressure,"397.5 K, Crystal, DSC",780 ± 42 J/K/mol
same,molar heat capacity at constant pressure,"400 K, Crystal, Small (less than 1 g) adiabatic calorimetry",788 ± 32 J/K/mol
same,molar heat capacity at constant pressure,"402.5 K, Crystal, DSC",793 ± 42 J/K/mol
same,molar heat capacity at constant pressure,"405.5 K, Crystal, DSC",800 ± 42 J/K/mol
same,molar heat capacity at constant pressure,"408.5 K, Crystal, DSC",806 ± 43 J/K/mol
same,molar heat capacity at constant pressure,"411.5 K, Crystal, DSC",830 ± 47 J/K/mol
same,molar heat capacity at constant pressure,"420 K, Crystal, Small (less than 1 g) adiabatic calorimetry",800 ± 33 J/K/mol
same,molar heat capacity at constant pressure,"437.5 K, Crystal, Small (less than 1 g) adiabatic calorimetry",873 ± 33 J/K/mol
same,molar heat capacity at constant pressure,"437.5 K, Liquid, DSC",973 ± 50 J/K/mol
same,molar heat capacity at constant pressure,"440 K, Liquid, DSC",973 ± 50 J/K/mol
same,molar heat capacity at constant pressure,"445.5 K, Liquid, DSC",989 ± 50 J/K/mol
same,molar heat capacity at constant pressure,"447.5 K, Liquid, DSC",981 ± 50 J/K/mol
same,molar heat capacity at constant pressure,"450.5 K, Liquid, DSC",973 ± 50 J/K/mol
same,molar heat capacity at constant pressure,"453.5 K, Liquid, DSC",973 ± 50 J/K/mol
same,molar heat capacity at constant pressure,"456.5 K, Liquid, DSC",973 ± 50 J/K/mol
same,molar heat capacity at constant pressure,"459.5 K, Liquid, DSC",973 ± 50 J/K/mol
same,molar heat capacity at constant pressure,"460 K, Liquid, DSC",973 ± 50 J/K/mol
same,molar heat capacity at constant pressure,"462.5 K, Liquid, DSC",973 ± 50 J/K/mol
same,molar heat capacity at constant pressure,"465.5 K, Liquid, DSC",973 ± 50 J/K/mol
same,molar heat capacity at constant pressure,"468.5 K, Liquid, DSC",973 ± 50 J/K/mol
same,molar heat capacity at constant pressure,"471.5 K, Liquid, DSC",973 ± 50 J/K/mol
same,molar heat capacity at constant pressure,"474.5 K, Liquid, DSC",973 ± 50 J/K/mol
same,molar heat capacity at constant pressure,"477.5 K, Liquid, DSC",973 ± 50 J/K/mol
same,molar heat capacity at constant pressure,"480 K, Liquid, DSC",973 ± 50 J/K/mol
same,molar heat capacity at constant pressure,"480.5 K, Liquid, DSC",973 ± 50 J/K/mol

# Reference: the NIST ThermoML archive (doi:10.1016/j.jct.2018.11.011)
